The target in test [1] is T1, GPR84 (Homo sapiens, UniProt Q9NQS5).
T1 construct: expressed in transfected cells
Kind of test: GPR84 [35S]GTPγS binding assay, Tris buffer (alternative). The following applies: 3,3′ di indolylmethane at EC80, membranes from stable cell line over expressing GPR84, read-out: Alternative GPR84 assay GTPγS IC50 (GPR84-2). It counts as biochemical. As for the experimental part:
1.1. Cell Based Assay: GTp-γ S Binding Assay.
The following assay can be used for determination of GPR84 activation. The [^35S]GTPγS binding assay measures the level of G protein activation following agonist occupation of a GPCR, by determining the binding of the non-hydrolysable analog [^35S]GTPγS to Gα subunits.
Alternatively, the assay is performed in a 96 well plate where the following reagents are added. First 50 μL compound is added into the assay plate, followed by addition of 20 μL 3,3′ di indolylmethane at EC80 concentration (concentration which gives 80% of the activity of GPR84). In a last step, 30 μL of a mixture consisting of membranes-GTPγS-SpA beads is added [mixture consists of 20 μg/well membranes derived from stable cell line over expressing GPR84 (membranes are pre-incubated with 0.1 μM GDP for 15 min at 4° C.), 0.1 nM [^35S]GTPγS (Perkin Elmer, NEG030) and 0.5 mg/well PVT-WGA SpA beads (Perkin Elmer, RPNQ0001)]. All components are diluted in assay buffer containing 20 mM Tris pH 7.5; 5 mM MgCl2; 250 mM NaCl; 0.05% BSA; 75 ug/mL saponin Reactions are incubated for 90 min at room temperature followed by centrifugation at 2000 rpm during 15 min. Plates are read on a Topcount reader (Perkin Elmer) immediately after centrifugation (readout time, 1 min/well).
For orientation: GTPγS is a poorly hydrolysed GTP analogue; its binding reports G protein activation.

In test [2] the test system is human neutrophils. Kind of test: Human neutrophil migration assay (embelin-induced chemotaxis). The class given is cell-based. The following applies: Neutrophil; neutrophils from human buffy coats; embelin at EC80. As for the experimental part:
2.1. Human Neutrophil Migration Assay
The effect of agonists or antagonists for GPR84 can therefore be assayed in a neutrophil migration test. In the neutrophil migration assay, neutrophils, freshly isolated from buffy coats from human volunteers, are treated with a compound for 30 min Subsequently, the neutrophils are transferred to the upper wells of a Corning HTS transwell 96 permeable support system, of which the lower wells are filled with a embelin solution at EC80 (concentration which gives 80% of the activity of GPR84). After 1 h of incubation, migration of the neutrophils towards embelin in the lower compartment can be quantified by measuring the ATP-content of the lower wells using the ATPlite luminescence ATP detection assay system (Perkin Elmer, Cat. No.: 436110).
2.1.1 Isolation of Neutrophils from Human Buffy Coat
A human buffy coat is diluted with an equal volume of ice cold DPBS. 20 mL of the diluted buffy coat is gently mixed with 4 mL of ACD buffer (140 mM citric acid, 200 mM sodium citrate and 220 mM dextrose). Then, 12 mL of the 6% dextran/0.9% NaCl solution (15 g dextran T2000 and 2.25 g NaCl dissolved in 250 mL H2O) is added to the mixture and the samples are inverted gently up to 20 times. The total volume was transferred to a new recipient and incubated at room temperature for 1 h for complete separation of the two phases to occur. The yellowish supernatant is then transferred to a clean centrifugation tube and centrifuged for 12 min at 1300 rpm and 4° C. After centrifugation, the supernatant is discarded and the remaining cell pellet is rapidly resuspended in 12 mL of ice-cold H2O for red blood cell lysis to occur. After 20 seconds, 4 mL of ice-cold 0.6 M KCl is added. Samples are mixed carefully and centrifuged for 6 min at 1300 rpm, 4° C. The supernatant is discarded and the red blood cell lysis procedure is repeated one more time. Subsequently, the cell pellet is resuspended in 4 mL of DPBS and layered over 5 mL of Lymphoprep (Nycomed Pharma, Cat. No.: 1114545) in a 15 mL centrifuge tube. After centrifugation for 12 min at 1300 rpm, 4° C., the supernatant is removed and the cell pellet, containing the neutrophils, is resuspended in 25 mL chemotaxis buffer (RPMI 1640 medium, supplemented with 10 mM HEPES; freshly made for each experiment)
A cell suspension of 8.9×10^6 cells per milliliter is prepared. 20 μL of compound solution in chemotaxis buffer is added to 180 μL cell suspension. The mixture is incubated at 37° C. for 30 min with intermediate resuspension of the cells after 15 min Following this, 70 μL cell suspension is transferred to the upper compartment of a Corning HTS transwell 96 permeable support system with 5.0 μm pore size polycarbonate membrane (Corning, Cat. No.: 3387). The receiver well of the transwell system is then filled with 200 μL chemotaxis buffer containing compound and chemotactic agent (embelin). After incubation at 37° C. in 5% CO2 for 1 h, the upper plate of the transwell system is removed and the cell suspension in the receiver plate is transferred to a 96-well V-bottom plate. 50 μL of DPBS is added to the receiver plate to prevent remaining cells from drying out. The V-bottom plate is centrifuged for 6 min at 1500 rpm. The supernatant is removed and the cells are resuspended in 50 μL DPBS. The cells are then transferred back to the receiver plate of the transwell system. After this, 100 μL ATPlite solution (Perkin Elmer, Cat. No: 436110) was added to the cells. The plate is incubated for 10 min in the dark, while shaking. […] of cell lysate is then transferred to a white 96-well plate and luminescence is measured. The detected luminescent signal is considered as linearely related to the number of cells having migrated from the upper well to the receiver well.

Test [3] has as its system RAW264.7 murine macrophage-like cells. The following applies: RAW264.7 cells stimulated with LPS; cited from earlier work.
In test [4] the target is T1, GPR84. The following applies: literature reports; cited from earlier work.

The values that follow come from patent US9708312B2, “Dihydropyrimidinoisoquinolinones and pharmaceutical compositions thereof for the treatment of inflammatory disorders (GPR84 antagonists)” (GALAPAGOS NV, priority 2012, dated 2017).

T1 sequence (Q9NQS5 whole entry): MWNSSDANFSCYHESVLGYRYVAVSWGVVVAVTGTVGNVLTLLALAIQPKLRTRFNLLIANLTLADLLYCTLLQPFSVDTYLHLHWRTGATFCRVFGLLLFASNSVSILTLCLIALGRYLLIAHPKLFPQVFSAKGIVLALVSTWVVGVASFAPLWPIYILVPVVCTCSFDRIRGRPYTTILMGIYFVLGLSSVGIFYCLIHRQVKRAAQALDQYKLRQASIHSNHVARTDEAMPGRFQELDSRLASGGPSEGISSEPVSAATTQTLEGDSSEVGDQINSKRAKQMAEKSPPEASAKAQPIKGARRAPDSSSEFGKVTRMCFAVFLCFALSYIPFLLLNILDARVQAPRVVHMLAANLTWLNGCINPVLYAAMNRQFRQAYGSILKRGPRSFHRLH

For orientation: IC50 means the point on the concentration scale where inhibition reaches its midpoint. Turning to `Cc1cc(COc2ccc3c(c2)CCn2c-3cc(OCC3COc4ncccc4O3)nc2=O)nn1C` (centres unmarked) [compound 134, 2-(2,3-Dihydro-[1,4]dioxino[2,3-b]pyridin-2-ylmethoxy)-9-(1,5-dimethyl-1H-pyrazol-3-ylmethoxy)-6,7-dihydro-pyrimido[6,1-a]isoquinolin-4-one], the IC50 in test [1] and in test [2] was 0.01 to 100 nM throughout.
Regarding `O=c1nc(OCC2COc3ncccc3O2)cc2n1CCc1cc(C#Cc3ccncc3)ccc1-2` (centres unmarked) [compound 137, 2-(2,3-dihydro-[1,4]dioxino[2,3-b]pyridin-2-ylmethoxy)-9-pyridin-4-ylethynyl-6,7-dihydro-pyrimido[6,1-a]isoquinolin-4-one], the IC50 in test [1] and in test [2] was 0.01 to 100 nM throughout.
Regarding `N#Cc1ccccc1-c1ccc2c(c1)CCn1c-2cc(OCC2COc3ncccc3O2)nc1=O` (centres unmarked) [compound 125, 2-[2-(2,3-Dihydro-[1,4]dioxino[2,3-b]pyridin-2-ylmethoxy)-4-oxo-6,7-dihydro-4H-pyrimido[6,1-a]isoquinolin-9-yl]-benzonitrile], the IC50 is 100 to 500 nM in test [1] and 0.01 to 100 nM in test [2].
Take `CCCCCCCCCC(=O)O` [capric acid]: the “secretion of interleukin-12 p40 subunit (IL-12 p40)” value (from here on “secretion”) in test [3] is reported as “dose dependently increased”.
Regarding `CCCCCCCCCCCC(=O)O` [lauric acid], the “secretion” value in test [3] is on record as “dose dependently increased”.
Take `CCCCCCCCNc1cc(=O)[nH]c(=O)[nH]1` [6-n-octylaminouracil]: in test [4], the GPR84 agonist activity result is recorded as “some GPR84 agonist activity”.
In the case of `Cc1ccc(-c2ccc3c(c2)CCn2c-3cc(OCC3COc4ncccc4O3)nc2=O)cn1` (centres unmarked) [compound 139, 2-(2,3-dihydro-[1,4]dioxino[2,3-b]pyridin-2-ylmethoxy)-9-(6-methyl-pyridin-3-yl)-6,7-dihydro-pyrimido[6,1-a]isoquinolin-4-one], the IC50 in test [1] and in test [2] was 0.01 to 100 nM each time.
For `COCC#Cc1ccc2c(c1)CCn1c-2cc(OCC2COc3ncccc3O2)nc1=O` (centres unmarked) [compound 132, 2-(2,3-dihydro-[1,4]dioxino[2,3-b]pyridin-2-ylmethoxy)-9-(3-methoxy-prop-1-ynyl)-6,7-dihydro-pyrimido[6,1-a]isoquinolin-4-one], the figures for the IC50 in test [1] and in test [2] were 100 to 500 nM and 0.01 to 100 nM, respectively.
On to `CCCCCCCCCCC(=O)O` [undecanoic acid], for which the “secretion” value in test [3] is “dose dependently increased”.
For the compound `O=c1nc(OCC2COc3ncccc3O2)cc2n1CCc1cc(C#CC3(O)CCCC3)ccc1-2` (centres unmarked) [compound 142, 2-(2,3-Dihydro-[1,4]dioxino[2,3-b]pyridin-2-ylmethoxy)-9-(1-hydroxy-cyclopentylethynyl)-6,7-dihydro-pyrimido[6,1-a]isoquinolin-4-one], the IC50 in test [1] and in test [2] was 0.01 to 100 nM in each case.
`COc1ccc(-c2ccc3c(c2)CCn2c-3cc(OCC3COc4ncccc4O3)nc2=O)cn1` (centres unmarked) [compound 118, 2-(2,3-Dihydro-[1,4]dioxino[2,3-b]pyridin-2-ylmethoxy)-9-(6-methoxy-pyridin-3-yl)-6,7-dihydro-pyrimido[6,1-a]isoquinolin-4-one]: the IC50 in test [1] and in test [2] was 0.01 to 100 nM in each case.
With `c1ccc2c(Cc3c[nH]c4ccccc34)c[nH]c2c1` [3,3′-diindolylmethane], the GPR84 agonist activity entry in test [4] is listed as “some GPR84 agonist activity”.
For `O=c1nc(OCC2COc3ncccc3O2)cc2n1CCc1cc(OCc3ccncc3)ccc1-2` (centres unmarked) [compound 122, 2-(2,3-Dihydro-[1,4]dioxino[2,3-b]pyridin-2-ylmethoxy)-9-(pyridin-4-ylmethoxy)-6,7-dihydro-pyrimido[6,1-a]isoquinolin-4-one], the IC50 in test [1] and in test [2] was 0.01 to 100 nM throughout.
For the compound `O=c1nc(OCC2COc3ncccc3O2)cc2n1CCc1cc(C#Cc3cccnc3)ccc1-2` (centres unmarked) [compound 131, 2-(2,3-dihydro-[1,4]dioxino[2,3-b]pyridin-2-ylmethoxy)-9-pyridin-3-ylethynyl-6,7-dihydro-pyrimido[6,1-a]isoquinolin-4-one], the IC50 in test [1] lay in the range of 100 to 500 nM; in test [2], 0.01 to 100 nM.
